“Also recorded” adds a separate entry of the source. Ends that are not written are not given here.
Key:
Male SD rats [1] = conditions: rat, in vivo
DIR protein = assay: Co-immunoprecipitation of QD202-Biotin peptide with Flag-His-DIR (HEK 293 lysate, western blot and dot blot); assay type: binding, human; conditions: QD202-Biotin peptide added to lysate of Flag-His-DIR transfected HEK 293; anti-Biotin IP; FIG. 14
Description: The Flag-His-DIR expression plasmid was transfected into HEK 293, and cell proteins were extracted 48 h after transfection. Table 2: Plasmid sequences
Protein extraction was performed using Pierce RIPA lysis buffer, 1000 µL of Pierce RIPA lysis buffer containing protease inhibitors was added. Cells were collected and transferred to a clean 1.5 mL EP tube using a cell scraper. After mixing for 1 h on a rotary mixer at 4°C, the cells were centrifuged at 13,000 rpm at 4°C for 10 min to remove cell debris. The supernatant of the cell lysate was divided into two aliquots, each 500 µL, and 10 µL of QD202-Biotin peptide at a concentration of 1 mM was added to one aliquot. From each of the two aliquots, 30 µL of the supernatant was taken and mixed with 10 µL of 4× loading buffer. The mixture was boiled at 100°C for 5 min and then stored frozen at -20°C. For the remaining 470 µL of protein lysate, 2 µL of the antibody (Anti-Biotin, Vector, sp-3000) was added; the mixture was incubated overnight (about 16-18 h) on a rotary shaker at 4°C. 30 µL of Protein G Sepharose beads (Roche, 11243233001) were placed in an EP tube and washed three times with Pierce RIPA lysis buffer. […] The protein was detected by Western blot and dot blot methods (DYKDDDDK-Tag (3B9) mAb, Abmart, M20008; Anti-Biotin, Vector, sp-3000).

APP/PS1 transgenic mice = assay: Novel object recognition test in AD mice; assay type: in vivo; conditions: continuously for 1 week
HT22 cells = assay: Quantitative detection of ROS (DCFH-DA) in the oxygen-glucose deprivation (OGD) cell model; assay type: cell-based, Mouse; conditions: OGD 16 h, 24 h reoxygenation, OGD plus vehicle = 100%, mean ± standard deviation
Description: Cell culture: Mouse hippocampal HT22 cells were cultured in DMEM and 10% serum at 37°C in a 5% CO2 incubator.
Oxygen-glucose deprivation (OGD) cell model: HT22 cells were seeded at a density of about 1 ×10^5 into 96-well plates and cultured for 24 h in a 37°C incubator with 5% CO2/95% air in DMEM and 10% serum. After placing HT22 cells in glucose-free medium, they were transferred to a sealed container containing a 5% CO2/95% N2 mixture and incubated at 37°C for 16 h. The glucose-free medium was then replaced with a normal medium containing glucose, and the mixture was incubated for 24 h in a 37°C incubator containing 5% CO2/95% air for reoxygenation.
Experimental grouping: Normally cultured HT22 cells were used as the control group. HT22 cells subjected to OGD were reoxygenated in normal culture medium and treated separately with vehicle, QD202 (0.1 µM, 1 µM, 5 µM), and the ROS scavenger edaravone (200 µM). After 24 h of reoxygenation, quantitative detection of ROS was performed.
Quantitative detection of ROS: Reactive oxygen species were detected using the Beyotime reactive oxygen species detection kit and the fluorescent probe DCFH-DA. DCFH-DA was diluted 1:1000 with serum-free culture medium to a final concentration of 10 µM. The culture medium was removed and the diluted DCFH-DA was added. The cells were then incubated in a 37°C cell culture incubator for 20 min. The cells were washed three times with serum-free cell culture medium to thoroughly remove any DCFH-DA that had not entered the cells. Observation was performed under a fluorescence microscope, followed by quantification of the average fluorescence intensity using Image J software.
Data analysis: Three parallel experiments were performed. The average fluorescence intensity of the OGD plus vehicle group was set as the standard value of 100% for normalization of the fluorescence intensity of cells in each group. Data were expressed as mean ± standard deviation, and […] tests were performed on the data of each group using One-Way ANOVA.

homozygous DIR-Ki mice = assay: Novel object recognition test in DIR-Ki mice; assay type: in vivo; conditions: intravenous, 7 consecutive days, FIG. 15
Description: Thirty homozygous DIR-Ki mice were divided into three groups: the control group (HO+PBS), the QD202 1 mg/kg group (HO+QD202 1 mpk), and the QD202 5 mg/kg group (HO+QD202 5 mpk). After 7 consecutive days of intravenous administration in the QD202-treated groups, the novel object recognition test was initiated.
Square PVC plastic box (dimensions: 25 cm × 25 cm × 30 cm), two identical size 1 batteries, one plastic toy of the same height as the batteries, experimental observation box, camera, and video recording software
On the day of the experiment, the mice were allowed to acclimatize to the experimental room for 30 min in advance. The test was divided into an acclimation period and a testing period.
Familiarization phase: Two identical batteries were placed 5 cm away from a box wall, with a 5 cm gap between the two batteries. The mice were placed in the center of the area and allowed to explore freely for 10 min. […]
Testing period: A toy with size and height similar to those of the battery was randomly used to replace one battery and placed in the same position as the original battery. […] The entire process was recorded using a camera. […] After the experiment, the time taken for the mice to explore novel and familiar objects in the video was counted manually, and the time recognition index of the novel objects was calculated. […]

Male SD rats [2] = conditions: rat, in vivo; remark: listed apart in the source

QD202: Polypeptide synthesized according to the amino acid sequence set forth in SEQ ID NO: 1; ATP6V1B2 regulator / DIR regulator (YGRKKRRQRRRSPVDVVCS; not fully specified)
neurobehavioral score (Male SD rats [1]): lower than that of the Model + QD202 placebo group with a statistical difference (p<0.05); also recorded: lower than that of the Model + QD202 placebo group with extremely significant statistical differences (p<0.001) | binding to the DIR protein (co-immunoprecipitation) (DIR protein): can bind | learning and cognitive functions in the novel object recognition test (APP/PS1 transgenic mice; intragastric, 6.25 mg/kg, ten-month-old APP/PS1 mice, FIG. 9): obvious improvement of learning and cognitive functions | learning and cognitive functions in novel object recognition (APP/PS1 transgenic mice; intravenous injection, 1.25 mg/kg, APP/PS1 mice of 10 months old, FIG. 11): obvious improvement on learning and cognitive functions | inhibition rate of ROS (HT22 cells; 0.1 µM): 17.55±12.95% | inhibition rate of ROS (HT22 cells; 1 µM): 60.63±8.27% | inhibition rate of ROS (HT22 cells; 5 µM): 70.09±2.84% | novel object recognition index (homozygous DIR-Ki mice; 1.0 mg/kg): significantly improved | novel object recognition index (homozygous DIR-Ki mice; 5.0 mg/kg): significantly improved | infarct volume (Male SD rats [2]): lower than that of the Model + QD202 placebo group, with a statistical difference (p<0.05); also recorded: lower than that of the Model + QD202 placebo group, with extremely significant statistical differences (p<0.001)
